Assay results as given in patent US6251881A, “Method of treating diabetic angiopathy” (priority 1999, dated 2001).

Columns and labels:
[1] = system: mice; details: mouse, in vivo
[2] = system: humans; assay: administration to humans, adverse effects; format: in vivo, human; details: doses exceeding 15 g/m^2
[3] = system: dogs; details: dog, in vivo
[4] = system: aldose reductase; details: humans, mainly in the 1980s; cited from earlier work
[5] = accepted value; cited from earlier work

With `O=S(=O)([O-])CCSSCCS(=O)(=O)[O-].[Na+].[Na+]` as the compound, how does the adverse effects [1] read?
The adverse effects was “no adverse effects”.

What about the adverse effects [2] of the same compound?
The adverse effects was “no adverse effects”.

What about the adverse effects [3] of the same compound?
Its adverse effects is “no adverse effects”.

What does the source list for `O=C1NC(=O)[C@@]2(CCOc3ccc(F)cc32)N1` [sorbinil]?
efficacy in slowing the progress of diabetic retinopathy [4]: some efficacy; tolerability in patients [4]: not well tolerated

With `[Cl-].[Na+]` [common table salt] as the compound, how does the “oral LD50” value [5] read?
The value was 3750 mg/kg.
